According to patent publication US20030186941A1, “Cyclopenteneone derivatives” (priority 1999, published 2003):
Like-named read-outs stand apart in the source and are kept apart here.

Assays:
[1] = tested on: parainfluenza Sendai virus (SV); assay: microbe, parasite or virus in culture; assay type: cell-based; conditions: for inhibition of Sendai virus replication: 37RC cells, virus yield at 24 hours after infection; for IC50: Respirovirus muris
37RC cells [2] = assay: Toxicity to uninfected 37RC cells, determined visually by microscopy; assay type: cell-based, Monkey
NF-κB [3] = target: T1, NF-κB (Homo sapiens, UniProt Q04206); assay: EMSA of NF-κB DNA-binding activity in TPA-stimulated Jurkat T cells; assay type: cell-based; parameters: endogenous in cells; host or cells: Jurkat T cells (human lymphoblastoid), TPA-stimulated; whole-cell extracts; conditions: test compound 1 hour then TPA 25 ng/ml, extracts after 3 hours
Procedure: Methods: Human lymphoblastoid Jurkat T cells were grown at 37° C. in a 5% CO2 atmosphere in RPM1 1640 medium (GIBCO BRL, Gaithersburg, Md.) supplemented with 10% fetal calf serum (FCS, Hyclone Europe Ltd, UK) 2 mM glutamine and antibiotics according to the method described by A. Rossi et al. (Proc. Natl. Acad. Sci. USA 94: 746-750, 1997). The test compounds were stored as a 100% ethanolic stock solution (100 mM) or in DMSO (100 mM and diluted to the appropriate concentration in culture medium at the time of use. Cells were treated with different concentrations of test compound for 1 hour and then stimulated with 12-O-tetradecanoylphorbol-13-acetate (TPA, 25 ng/ml), which is a strong inducer of NF-κB. Control cells received an equal amount of control diluent. After 3 hours whole-cell extracts were prepared and subjected to analysis of DNA-binding activity by EMSA (Electrophoretic Mobility Shift Assay) for detection of HSF or NF-κB activation, according to the method described by A. Rossi et al. (Proc. Natl. Acad. Sci. USA 94: 746-750, 1997).
Specificity of protein-DNA complexes was verified by immunoreactivity with polyclonal antibodies specific for p65 (Rel A) or for HSF-1, for NF-κB and HSF respectively. Quantitative evaluation of NF-κB- and HSF-DNA complex formation was determined by Molecular Dynamics Phosphorlmager (MDP) analysis and was expressed in arbitrary units, as described in A. Rossi et al.(J. Biol. Chem. 273: 16446-16452, 1998). The results from representative experiments are shown in FIGS. 1(b), 2(b), 3(b), 4(b), 5(b), 6 and 7(b) for compounds CTC-31, CTC-32, CTC-33, CTC-34, CTC-35, CTC-36 and CTC-45, as identified above.

[4] = tested on: Herpes simplex virus type one (HSV-1), strain F; assay: HSV-1 replication in Hep-2 cells, virus titre by CPE 50% assay on VERO cells; assay type: cell-based, Herpes simplex virus type 1; conditions: Human alphaherpesvirus 1, HEp-2, 24 h, read-out: ID50 (50% inhibitory dose/concentration), HSV-1 virus replication
Procedure: Methods: Human Hep-2 laryngeal carcinoma cells and monkey VERO cells were grown at 37° C. under the conditions described in Example 9 for T cells. Cell viability was determined by dye exclusion technique or by 3-(4,5-dimethylthiazol-2-yl)-2,5-diphenyl-tetrazolium bromide (MTT, Sigma Chemical Co.) to MTT formazan assay, as described by F. Denizot and R. Lang (J. Immunol. Methods 89: 271-277, 1986). Herpes simplex virus type one (HSV-1), strain F grown in VERO cells, was used at a multiplicity of infection of 10 plaque forming units (PFU) per cell. Confluent Hep-2 cell monolayers were infected with HSV-1 for 1 h at 37° C. After this time, virus inocula were removed and cells incubated in RPMI 1640 medium containing 2% FCS. Different concentrations of CTC-35 were added to the culture after the 1 h adsorption period, and maintained in the medium for the duration of the experiment. […] HSV-1 virus titres were determined 24 hours after infection by cytopathic effect 50% (CPE 50%) assay on confluent VERO cells monolayers in 96-well tissue culture plates (six dilutions for each sample, eight wells for each dilution), as described by F. Pica et al. (Antiviral Res. 20: 193-208, 1993). The dilution that gives 50% cytopathic effect were determined by the interpolating procedure of Reed and Muensch, as described by E. Rodriguez-Boulan Methods Enzymol. 98: 486-501, 1983).

A549 cells = assay: MTT cell viability assay, uninfected A549 cells; assay type: cell-based, Human; conditions: 24 hours
Procedure: (§1) Cell viability was determined by the 3-(4,5-dimethylthiazol-2-yl)-2,5-diphenyltetrazolium bromide MIT) assay. Uninfected A549 (7.5×10^4 cells/well in 96 well plates) or 37RC cells (2.5×10^4 cells/well in 96 well plates) were treated with different concentrations of CTC35 or ethanol diluent for 24 hours. After this time, […] of a 0.5% MIT solution in PBS was added to the monolayers and the mixture was incubated for 2 h at 37° C. Reduced MTT (formazan) was extracted from cells by adding 100 μl of acidic isopropanol containing 10% Triton X-100, and formazan absorbance was measured in an ELISA microplate reader at two different wavelengths (540 and 690 nm).

37RC cells [5] = assay: MTT cell viability assay, uninfected 37RC cells; assay type: cell-based, Monkey; conditions: 24 hours
Procedure: as §1

[6] = anaesthetized rat, intravenous infusion, doses from 30 μg/kg/min; cited from earlier work
HSF1 = target: T2, HSF1 (Homo sapiens, UniProt Q00613); conditions: at a concentration of 125-500 μM; cited from earlier work
T2 sequence (Q00613 1-529): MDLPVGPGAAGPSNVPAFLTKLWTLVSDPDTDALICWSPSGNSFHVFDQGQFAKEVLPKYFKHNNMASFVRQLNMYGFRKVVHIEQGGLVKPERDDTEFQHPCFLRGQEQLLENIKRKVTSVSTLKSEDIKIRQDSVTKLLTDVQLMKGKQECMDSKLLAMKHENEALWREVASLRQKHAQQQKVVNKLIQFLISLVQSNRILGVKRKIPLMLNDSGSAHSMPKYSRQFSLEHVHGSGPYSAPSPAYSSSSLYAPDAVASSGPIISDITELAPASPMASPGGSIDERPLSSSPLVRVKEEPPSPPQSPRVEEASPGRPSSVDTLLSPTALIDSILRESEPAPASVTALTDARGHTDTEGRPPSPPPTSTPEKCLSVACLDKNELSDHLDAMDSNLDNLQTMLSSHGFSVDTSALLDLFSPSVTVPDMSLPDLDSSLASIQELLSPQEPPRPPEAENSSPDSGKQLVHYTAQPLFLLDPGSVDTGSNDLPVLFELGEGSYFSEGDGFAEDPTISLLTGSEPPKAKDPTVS

NF-κB [7] = target: T1, NF-κB; conditions: at a concentration of 125-500 μM; cited from earlier work
[8] = Sendai virus in 37RC cells, at 24 hours, read-out: ID50 (the source's name)

T1 sequence (Q04206 whole entry): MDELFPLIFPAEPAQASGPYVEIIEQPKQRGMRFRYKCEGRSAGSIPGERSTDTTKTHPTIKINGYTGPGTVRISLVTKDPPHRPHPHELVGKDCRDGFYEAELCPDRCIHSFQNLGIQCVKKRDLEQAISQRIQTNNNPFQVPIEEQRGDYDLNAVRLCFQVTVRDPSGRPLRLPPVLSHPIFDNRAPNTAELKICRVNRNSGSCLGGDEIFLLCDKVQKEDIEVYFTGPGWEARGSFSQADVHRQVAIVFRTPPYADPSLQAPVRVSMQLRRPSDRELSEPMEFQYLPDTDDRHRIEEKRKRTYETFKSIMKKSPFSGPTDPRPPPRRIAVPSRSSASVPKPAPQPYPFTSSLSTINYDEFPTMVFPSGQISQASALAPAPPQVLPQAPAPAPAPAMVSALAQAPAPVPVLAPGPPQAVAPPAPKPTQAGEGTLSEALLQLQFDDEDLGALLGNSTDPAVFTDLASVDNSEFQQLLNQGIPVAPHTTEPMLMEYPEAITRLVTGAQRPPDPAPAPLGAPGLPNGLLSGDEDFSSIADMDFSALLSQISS
T1 sequence (P19838 1-433 partner limits assumed): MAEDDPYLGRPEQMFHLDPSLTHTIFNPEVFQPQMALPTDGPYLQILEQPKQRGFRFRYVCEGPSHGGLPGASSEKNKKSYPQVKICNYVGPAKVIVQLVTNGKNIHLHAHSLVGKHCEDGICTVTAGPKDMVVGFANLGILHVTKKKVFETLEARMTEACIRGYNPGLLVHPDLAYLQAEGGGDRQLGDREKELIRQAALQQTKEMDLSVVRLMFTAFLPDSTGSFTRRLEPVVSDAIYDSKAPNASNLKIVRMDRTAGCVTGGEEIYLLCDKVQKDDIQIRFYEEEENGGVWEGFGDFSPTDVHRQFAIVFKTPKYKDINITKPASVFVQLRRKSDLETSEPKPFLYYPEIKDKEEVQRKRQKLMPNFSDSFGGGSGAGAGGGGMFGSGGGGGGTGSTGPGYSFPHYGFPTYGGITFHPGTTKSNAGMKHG

Row | Structure (SMILES) | inhibition of Sendai virus replication [1] | IC50 ([1]; 24 h, read-out: ID50) [nM] | TD100 (concentration 100% toxic to uninfected cells) (37RC cells [2]) [µM] | inhibition of NF-κB (NF-κB-DNA complex formation, EMSA) (NF-κB [3]) | further results
1 | CC/C=C1/C(=O)C=CC1O[Si](C)(C)C(C)(C)C (stereo not drawn) [CTC-31, 4-tert.butyldimethylsilyloxy-5-(prop-1-ene)-cyclopent-2-ene-1-one] | potent inhibitors of Sendai virus replication | 1000 | 50 | potent inhibitors of NF-κB | 
2 | CC(C)(C)[Si](C)(C)OC1C=CC(=O)/C1=C/c1ccccn1 (stereo not drawn) [CTC-32, 4-tert.butyldimethylsilyloxy-5-[methylene-(2-pyridyl)]-cyclopent-2-ene-1-one] |  | 2000 | 10 |  | 
3 | CC(C)(C)[Si](C)(C)OC1C=CC(=O)/C1=C/c1ccccc1 (stereo not drawn) [CTC-33, 5-benzylidene-4-[(tert-butyldimethylsilyl)oxy]-2-cyclopentene-1-one] | potent inhibitors of Sendai virus replication |  | 50 | potent inhibitors of NF-κB | IC50 [1, 8]: 1500 nM
4 | CCCCCCC/C=C1/C(=O)C=CC1O[Si](C)(C)C(C)(C)C (stereo not drawn) [CTC-34, 4-tert.butyldimethylsilyloxy-5-(oct-1-ene)-cyclopent-2-ene-1-one] | potent inhibitors of Sendai virus replication | 3000 | 50 | potent inhibitors of NF-κB | 
5 | CC(C)/C=C1\C(=O)C=CC1O[Si](C)(C)C(C)(C)C (stereo not drawn) [CTC-35] | potent inhibitors of Sendai virus replication |  | 50 | potent inhibitors of NF-κB | IC50 [4]: 1510 nM; IC50 [1, 8]: 400 nM; LD50 (Lethal dose/concentration 50%) (A549 cells): 90 µM; LD50 (Lethal dose/concentration 50%) (37RC cells [5]): 30 µM
6 | CC(C)/C=C1/C(=O)C=CC1O[Si](C)(C)C(C)(C)C (stereo not drawn) [CTC-36] |  |  |  | potent inhibitors of NF-κB | 
7 | CCC/C=C1/C(=O)C=CC1O[Si](C)(C)C(C)(C)C (stereo not drawn) [CTC-45, butyldimethylsilyloxy-5-[but-1-ene]-cyclopent-2-ene-1-one] | potent inhibitors of Sendai virus replication | 3000 | 50 | potent inhibitors of NF-κB | 
8 | CCCCC[C@H](O)/C=C/[C@H]1C=CC(=O)[C@@H]1CCCCCCC(=O)O [Prostaglandin A1] |  |  |  |  | effect on blood pressure [6]: dose-dependant falls in blood pressure
9 | CCCCC[C@H](O)/C=C/[C@H]1[C@H](O)CC(=O)[C@@H]1CCCCCCC(=O)O [Prostaglandin E1] |  |  |  |  | effect on blood pressure [6]: dose-dependant falls in blood pressure
10 | O=C1C=CCC1 [cyclopent-2-en-1-one] |  |  |  |  | activation of HSF1 (HSF1): able to activate HSF1; block of NF-κB activation by chemical or physiological inducers (NF-κB [7]): able to block NF-κB activation
